Measurements taken from BigSolDB 2.1.

Cc1occc(=O)c1O
solubility (mole fraction)
Conditions | 288.15 K | 293.15 K | 298.15 K | 303.15 K | 308.15 K | 313.15 K | 318.15 K | 323.15 K
in 1,2-dichloroethane | 0.0109 | 0.0143 | 0.0174 | 0.0214 | 0.0262 | 0.0333 | 0.0378 | 0.048
in acetone | 0.0101 | 0.0116 | 0.0134 | 0.0157 | 0.0195 | 0.023 | 0.0265 | 0.0311
in acetonitrile | 0.00735 | 0.00861 | 0.0107 | 0.0136 | 0.016 | 0.0209 | 0.0258 | 0.0325
in ethanol | 0.00894 | 0.0106 | 0.0125 | 0.0156 | 0.0211 | 0.0273 | 0.0331 | 0.0427
in ethyl acetate | 0.0115 | 0.013 | 0.0153 | 0.02 | 0.0225 | 0.0276 | 0.0337 | 0.0413
in isobutanol | 0.00638 | 0.00832 | 0.0108 | 0.0134 | 0.0185 | 0.0238 | 0.0293 | 0.0349
in isopropanol | 0.00683 | 0.00812 | 0.0103 | 0.0129 | 0.0161 | 0.021 | 0.0265 | 0.0328
in methanol | 0.0135 | 0.0159 | 0.0185 | 0.0223 | 0.0267 | 0.0325 | 0.0373 | 0.0465
in n-butanol | 0.00705 | 0.00917 | 0.0115 | 0.0143 | 0.0182 | 0.0228 | 0.03 | 0.0365
in n-butyl acetate | 0.00889 | 0.0101 | 0.0128 | 0.0148 | 0.0193 | 0.0229 | 0.0281 | 0.0317
in n-propanol | 0.00705 | 0.00931 | 0.0118 | 0.0144 | 0.0182 | 0.0233 | 0.028 | 0.0341
in n-propyl acetate | 0.00974 | 0.0105 | 0.013 | 0.0151 | 0.0181 | 0.0226 | 0.026 | 0.0316
in sec-butanol | 0.00716 | 0.00927 | 0.0111 | 0.0153 | 0.0177 | 0.0244 | 0.0304 | 0.0408
